Drawing on ChEMBL document CHEMBL3991601, “The target landscape of clinical kinase drugs” (Science, 2017), this text covers Kd for 14 molecules.

Molecules are shown by their SMILES. Active and inactive are the calls of the source.

The target of assay [1] is Casein kinase I isoform delta (Homo sapiens, UniProt P48730).
For assay [2], the target named is T1, Interleukin-1 receptor-associated kinase 3 (Homo sapiens, UniProt Q9Y616).
T1 sequence (Q9Y616 whole entry): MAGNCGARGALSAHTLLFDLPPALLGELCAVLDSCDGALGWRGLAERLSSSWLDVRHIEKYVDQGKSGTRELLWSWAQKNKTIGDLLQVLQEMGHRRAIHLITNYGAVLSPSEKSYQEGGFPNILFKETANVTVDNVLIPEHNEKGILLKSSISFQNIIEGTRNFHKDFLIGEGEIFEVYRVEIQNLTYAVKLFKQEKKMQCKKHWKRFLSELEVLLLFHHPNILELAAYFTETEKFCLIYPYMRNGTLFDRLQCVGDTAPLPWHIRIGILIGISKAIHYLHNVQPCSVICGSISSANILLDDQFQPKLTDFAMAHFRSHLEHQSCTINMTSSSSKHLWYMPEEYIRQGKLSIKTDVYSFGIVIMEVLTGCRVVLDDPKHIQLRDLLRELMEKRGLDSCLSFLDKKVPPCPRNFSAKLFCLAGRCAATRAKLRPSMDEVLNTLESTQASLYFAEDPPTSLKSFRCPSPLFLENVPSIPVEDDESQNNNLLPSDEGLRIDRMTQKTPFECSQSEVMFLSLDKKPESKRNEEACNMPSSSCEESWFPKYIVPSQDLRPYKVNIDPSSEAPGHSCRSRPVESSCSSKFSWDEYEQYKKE

For assay [3], the target named is Tyrosine-protein kinase Lck (Homo sapiens, UniProt P06239).
Assay [4] concerns the target T2, DNA replication licensing factor MCM4 (Homo sapiens, UniProt P33991).
T2 sequence (P33991 whole entry): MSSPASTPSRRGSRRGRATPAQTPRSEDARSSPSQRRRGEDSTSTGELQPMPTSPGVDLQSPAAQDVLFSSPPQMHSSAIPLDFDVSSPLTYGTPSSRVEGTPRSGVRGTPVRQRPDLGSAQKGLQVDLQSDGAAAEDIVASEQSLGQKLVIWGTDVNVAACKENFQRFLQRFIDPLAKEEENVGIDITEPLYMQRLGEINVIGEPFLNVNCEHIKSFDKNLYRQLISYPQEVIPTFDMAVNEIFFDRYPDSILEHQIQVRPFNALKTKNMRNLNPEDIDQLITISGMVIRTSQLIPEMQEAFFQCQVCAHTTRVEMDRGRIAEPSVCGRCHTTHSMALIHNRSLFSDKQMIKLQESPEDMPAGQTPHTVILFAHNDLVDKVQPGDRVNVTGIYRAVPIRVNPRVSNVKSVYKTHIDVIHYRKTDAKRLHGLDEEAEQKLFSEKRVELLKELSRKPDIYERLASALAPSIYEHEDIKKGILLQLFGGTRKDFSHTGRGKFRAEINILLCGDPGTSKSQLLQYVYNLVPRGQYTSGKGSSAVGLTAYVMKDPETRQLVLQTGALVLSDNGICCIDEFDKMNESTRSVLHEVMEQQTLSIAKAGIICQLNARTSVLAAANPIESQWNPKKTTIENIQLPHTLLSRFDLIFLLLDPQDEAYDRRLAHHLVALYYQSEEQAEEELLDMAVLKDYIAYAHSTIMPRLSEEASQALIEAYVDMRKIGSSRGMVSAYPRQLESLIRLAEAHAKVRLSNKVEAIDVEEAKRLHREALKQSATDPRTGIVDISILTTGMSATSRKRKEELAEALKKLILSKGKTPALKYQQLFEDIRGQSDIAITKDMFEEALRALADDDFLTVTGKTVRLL

In assay [5] the target is T3, RNA cytidine acetyltransferase (Homo sapiens, UniProt Q9H0A0).
T3 sequence (Q9H0A0 whole entry): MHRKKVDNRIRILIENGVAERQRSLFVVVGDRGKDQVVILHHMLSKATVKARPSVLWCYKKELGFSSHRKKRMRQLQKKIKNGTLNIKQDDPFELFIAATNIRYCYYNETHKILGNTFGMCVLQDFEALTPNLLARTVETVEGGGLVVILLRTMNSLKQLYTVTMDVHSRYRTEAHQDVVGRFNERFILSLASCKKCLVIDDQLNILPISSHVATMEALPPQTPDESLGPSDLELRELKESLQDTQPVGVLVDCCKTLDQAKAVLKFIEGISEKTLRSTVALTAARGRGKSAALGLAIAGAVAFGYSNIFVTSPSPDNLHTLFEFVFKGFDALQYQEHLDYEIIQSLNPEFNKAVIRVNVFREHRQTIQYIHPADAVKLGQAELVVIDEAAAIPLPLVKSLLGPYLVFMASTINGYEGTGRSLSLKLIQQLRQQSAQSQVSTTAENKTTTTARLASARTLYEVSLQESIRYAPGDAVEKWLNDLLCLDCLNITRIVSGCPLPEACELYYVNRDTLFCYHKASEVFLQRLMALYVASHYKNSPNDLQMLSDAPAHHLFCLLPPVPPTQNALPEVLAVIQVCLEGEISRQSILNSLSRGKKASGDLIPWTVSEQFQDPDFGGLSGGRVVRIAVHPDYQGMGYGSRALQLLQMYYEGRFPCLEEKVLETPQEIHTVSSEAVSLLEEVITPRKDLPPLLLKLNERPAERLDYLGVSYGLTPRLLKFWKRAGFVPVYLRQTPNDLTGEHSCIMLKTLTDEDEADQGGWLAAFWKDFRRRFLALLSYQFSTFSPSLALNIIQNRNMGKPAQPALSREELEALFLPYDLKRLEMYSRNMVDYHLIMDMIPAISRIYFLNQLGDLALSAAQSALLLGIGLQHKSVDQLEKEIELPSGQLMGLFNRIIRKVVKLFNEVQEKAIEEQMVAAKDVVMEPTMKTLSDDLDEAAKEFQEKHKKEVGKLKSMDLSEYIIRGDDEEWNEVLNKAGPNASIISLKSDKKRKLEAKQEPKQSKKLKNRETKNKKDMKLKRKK

For assay [6], the target named is 26S proteasome regulatory subunit 6B (Homo sapiens, UniProt P43686).
The target of assay [7] is T4, Ras-related protein Rab-10 (Homo sapiens, UniProt P61026).
T4 sequence (P61026 whole entry): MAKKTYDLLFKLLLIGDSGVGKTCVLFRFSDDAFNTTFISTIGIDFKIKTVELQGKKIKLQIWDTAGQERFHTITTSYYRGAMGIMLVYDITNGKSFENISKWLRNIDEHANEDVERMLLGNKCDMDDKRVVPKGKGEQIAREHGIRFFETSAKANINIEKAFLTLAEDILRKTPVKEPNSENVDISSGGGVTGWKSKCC
Further: in the data inactive means no Kd found up to 30 µM.

Sequence of 26S proteasome regulatory subunit 6B (P43686 whole entry): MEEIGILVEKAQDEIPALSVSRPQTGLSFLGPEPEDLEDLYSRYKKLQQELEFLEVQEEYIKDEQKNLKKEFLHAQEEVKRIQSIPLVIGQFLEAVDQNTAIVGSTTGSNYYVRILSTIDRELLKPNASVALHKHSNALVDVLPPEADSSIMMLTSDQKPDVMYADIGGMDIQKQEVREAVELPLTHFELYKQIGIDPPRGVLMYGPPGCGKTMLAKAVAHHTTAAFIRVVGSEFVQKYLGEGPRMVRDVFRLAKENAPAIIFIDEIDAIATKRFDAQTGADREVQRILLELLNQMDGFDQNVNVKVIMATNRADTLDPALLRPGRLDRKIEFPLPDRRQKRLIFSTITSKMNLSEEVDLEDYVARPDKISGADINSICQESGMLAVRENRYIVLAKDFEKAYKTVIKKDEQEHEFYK
Sequence of Tyrosine-protein kinase Lck (P06239 whole entry): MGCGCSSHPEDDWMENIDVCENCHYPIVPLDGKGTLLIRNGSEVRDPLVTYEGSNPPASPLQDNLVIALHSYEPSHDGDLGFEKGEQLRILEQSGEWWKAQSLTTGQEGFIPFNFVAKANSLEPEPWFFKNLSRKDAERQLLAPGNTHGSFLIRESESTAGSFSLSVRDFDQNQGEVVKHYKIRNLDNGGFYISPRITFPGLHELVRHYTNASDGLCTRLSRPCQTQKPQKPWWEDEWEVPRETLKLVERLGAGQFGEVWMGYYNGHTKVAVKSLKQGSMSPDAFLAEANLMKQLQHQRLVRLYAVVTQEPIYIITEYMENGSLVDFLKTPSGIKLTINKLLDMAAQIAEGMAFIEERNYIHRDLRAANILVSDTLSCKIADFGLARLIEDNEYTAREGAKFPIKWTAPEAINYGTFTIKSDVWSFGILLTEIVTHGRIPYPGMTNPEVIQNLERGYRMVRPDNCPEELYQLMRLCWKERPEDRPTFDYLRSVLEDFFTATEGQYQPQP
Sequence of Casein kinase I isoform delta (P48730 whole entry, canonical isoform): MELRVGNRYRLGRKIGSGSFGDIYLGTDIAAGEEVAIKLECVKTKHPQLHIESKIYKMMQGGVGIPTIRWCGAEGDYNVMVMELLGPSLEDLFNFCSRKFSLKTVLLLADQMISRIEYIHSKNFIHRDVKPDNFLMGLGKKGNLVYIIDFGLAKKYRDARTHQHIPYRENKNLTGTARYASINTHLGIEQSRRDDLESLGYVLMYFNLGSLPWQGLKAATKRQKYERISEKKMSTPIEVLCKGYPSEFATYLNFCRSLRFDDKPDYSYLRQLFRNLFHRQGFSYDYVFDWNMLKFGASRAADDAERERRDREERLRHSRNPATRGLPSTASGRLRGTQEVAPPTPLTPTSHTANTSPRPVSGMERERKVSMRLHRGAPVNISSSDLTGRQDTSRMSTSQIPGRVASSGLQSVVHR

Turning to `CC[C@H](Nc1ncnc2[nH]cnc12)c1nc2cccc(F)c2c(=O)n1-c1ccccc1` [IDELALISIB], the Kd in assay [1], in assay [2], in assay [3], in assay [4], in assay [5] and in assay [6] was > 30 µM (inactive) throughout. Also, the Kd (as a rule, the free concentration of one partner at which half of the binding sites on the other are occupied at equilibrium, for simple one-to-one binding) in assay [7] is > 30 µM (inactive).
Turning to `C[C@@H](c1ccc2nccn2c1)n1nnc2ncc(-c3cnn(C)c3)nc21` [SAVOLITINIB], the Kd in assay [1], in assay [2], in assay [3], in assay [4], in assay [5] and in assay [6] was > 30 µM (inactive) in each case. The Kd in assay [7] was > 30 µM (inactive).
For `CN1N=C(N)c2cn([C@@H]3O[C@H](COP(=O)(O)O)[C@@H](O)[C@H]3O)c3ncnc1c23` [TRICIRIBINE PHOSPHATE], the Kd in assay [1], in assay [2], in assay [3], in assay [4], in assay [5] and in assay [6] was > 30 µM (inactive) in each case. For the same molecule, the Kd in assay [7] was > 30 µM (inactive).
`CNC(=O)CN1CCC(Oc2cc3c(Nc4cccc(Cl)c4F)ncnc3cc2OC)CC1` [SAPITINIB]: the Kd in assay [1], in assay [2], in assay [3], in assay [4], in assay [5] and in assay [6] was > 30 µM (inactive) throughout. The Kd in assay [7] is > 30 µM (inactive).
Take `O=C(c1ccc(F)c(F)c1Nc1ccc(I)cc1F)N1CC(O)([C@@H]2CCCCN2)C1` [COBIMETINIB]: the Kd in assay [1], in assay [2], in assay [3], in assay [4], in assay [5] and in assay [6] was > 30 µM (inactive) each time. Moreover, the Kd in assay [7] was > 30 µM (inactive).
Consider `Cc1ccc(S(=O)(=O)Nc2nc3ccccc3nc2Nc2ccc3nsnc3c2)cc1`, for which the Kd in assay [1], in assay [2], in assay [3], in assay [4], in assay [5] and in assay [6] was > 30 µM (inactive) throughout. The Kd in assay [7] was > 30 µM (inactive).
For the molecule `CCS(=O)(=O)N1CC(CC#N)(n2cc(-c3ncnc4[nH]ccc34)cn2)C1` [BARICITINIB], the Kd in assay [1], in assay [2], in assay [3], in assay [4], in assay [5] and in assay [6] was > 30 µM (inactive) each time. Besides, the Kd in assay [7] is > 30 µM (inactive).
As to `Cc1ccc(-n2nc(C(C)(C)C)cc2NC(=O)NCc2cc(F)ccc2Oc2ccc3c(cnn3CCO)c2)cc1` [PEXMETINIB], the Kd in assay [1], in assay [2], in assay [3], in assay [4], in assay [5] and in assay [6] was > 30 µM (inactive) throughout. Also, the Kd in assay [7] was > 30 µM (inactive).
For the molecule `CNS(=O)(=O)Nc1nccc(Cc2c(C)c3ccc(Oc4ncccn4)cc3oc2=O)c1F` [AVUTOMETINIB], the Kd in assay [1], in assay [2], in assay [3], in assay [4], in assay [5] and in assay [6] was > 30 µM (inactive) in each case. Also, the Kd in assay [7] was > 30 µM (inactive).
Regarding `COc1ccc(-c2ccc3c(N4CCOC[C@@H]4C)nc(N4CCOC[C@@H]4C)nc3n2)cc1CO` [AZD-8055], the Kd in assay [1], in assay [2], in assay [3], in assay [4], in assay [5] and in assay [6] was > 30 µM (inactive) throughout. For the same molecule, the Kd in assay [7] was > 30 µM (inactive).
With `O=C(O)[C@]1(Cc2cccc(Nc3nccs3)n2)CC[C@@H](Oc2cccc(Cl)c2F)CC1` [MK-5108], the Kd in assay [1] was > 30 µM (inactive); in assay [2], 0.024 µM (active); in assay [3], > 30 µM (inactive); in assay [4] it was > 30 µM (inactive); in assay [5] it was > 30 µM (inactive); in assay [6] it was > 30 µM (inactive). For the same molecule, the Kd in assay [7] was > 30 µM (inactive).
Take `COc1cc2nccc(Oc3ccc(NC(=O)Nc4cc(C)on4)c(Cl)c3)c2cc1OC` [TIVOZANIB]: the Kd in assay [1] was > 30 µM (inactive); in assay [2], > 30 µM (inactive); in assay [3] it was 2.18 µM (active); in assay [4], > 30 µM (inactive); in assay [5] it was > 30 µM (inactive); in assay [6], > 30 µM (inactive). In assay [7], the Kd is > 30 µM (inactive).
Turning to `COc1cc(N2CCC(N3CCN(C)CC3)CC2)ccc1Nc1ncnc(Nc2ccccc2S(=O)(=O)C(C)C)n1` [ASP-3026], the Kd in assay [1] was > 30 µM (inactive); in assay [2], > 30 µM (inactive); in assay [3], 1.27 µM (active); in assay [4], > 30 µM (inactive); in assay [5], > 30 µM (inactive); in assay [6], > 30 µM (inactive). Also, the Kd in assay [7] was > 30 µM (inactive).
Take `CN1CCC(CNc2ccc3ncc(-c4cccc(OC(F)(F)F)c4)n3n2)CC1` [SGI-1776]: the Kd in assay [1] was > 30 µM (inactive); in assay [2], 0.026 µM (active); in assay [3], > 30 µM (inactive); in assay [4], > 30 µM (inactive); in assay [5] it was > 30 µM (inactive); in assay [6] it was > 30 µM (inactive). The Kd in assay [7] is > 30 µM (inactive).
